From patent EP3153160A1, “USE OF XANTHOPHYLLS FOR THE TREATMENT OF CANCERS” (Lu, Chuen Wei, priority 2015, dated 2017) come the findings set out here.

SMILES strings stand for the structures.

Common to all, as to type: cell-based
Assay [1] has as its system Mouse adrenocortical Y1 cell line. As to the kind of experiment: Y1 cell growth, cell counting. The note with it: 40 µM astaxanthin, 1, 2 or 3 days of treatment, compared with control (DMSO treated) group; Figures 1 and 2. On the procedure:
(§1) Mouse adrenocortical Y1 cell line (ATCC, ATCC® CCL-79™) was grown in Dulbecco's modified Eagle medium (DMEM)-F12 supplemented with 10% fetal bovine serum at 37°C in a humidified atmosphere at 5% CO2.
(§2) Astaxanthin (Model NO: ATP-9601A; Yuan Yu Bio-Tech (Taiwan), Co., Ltd) was dissolved in dimethyl sulfoxide (DMSO) at concentration of 20 mM as stock solution.
(§3) The Y1 cells were incubated with DMSO or 40 µM of astaxanthin for 1, 2 or 3 days before analysis.

Assay [2] has as its system Human U87MG. The experiment in a line: U87MG cell growth, cell counting. The following applies: 100, 200 or 400 µM astaxanthin for 24 hours or 48 hours, cell numbers counted, vs DMSO; Figure 4. The procedure:
(§4) Human U87MG (ATCC, ATCC® HTB-14™) cell line was grown in DMEM medium supplemented with 10% fetal bovine serum at 37°C in a humidified atmosphere at 5% CO2. M059K (ATCC, ATCC® CRL-2365™) and M059J (ATCC, ATCC® CRL-2366™) cell lines were grown in Dulbecco's modified Eagle medium (DMEM)-F12 supplemented with 10% fetal bovine serum at 37°C in a humidified atmosphere at 5% CO2.
(§5) Astaxanthin was dissolved in dimethyl sulfoxide (DMSO) at concentration of 20 mM as stock solution.
(§6) The U87MG, M059K, and M059J cell lines were treated with DMSO or 100, 200 or 400 µM of astaxanthin for 24 hours or 48 hours and cell numbers were counted.

The subject of another assay is Human U2OS. The experiment in a line: U2OS cell growth, cell counting. The note with it: 100, 200 or 400 µM astaxanthin for 72 hours, cell numbers counted, vs DMSO; Figure 8. The procedure: Human U2OS (ATCC, ATCC® HTB-96™) cell line was grown in DMEM medium supplemented with 10% fetal bovine serum at 37°C in a humidified atmosphere at 5% CO2.
as §5
The U2OS cell line was treated with DMSO or 100, 200 or 400 µM of astaxanthin for 72 hours and cell numbers were counted.

Assay [3] relates to Human U87MG. As to the kind of experiment: MTT assay of U87MG cell viability. The following applies: DMSO or different concentrations of astaxanthin, Figures 5A and 5B. The procedure: (§7) Cells were washed with PBS after the treatment, followed by addition of 1 ml MTT (3-(4,5-cimethylthiazol-2-yl)-2,5-diphenyl tetrazolium bromide) solution (2 mg/ml in PBS) in each well. After incubation for 3 hours at 37°C, 2 ml of DMSO was added and cells were incubated in the dark for 30 minutes. Absorbance was measured at the wavelength of 570 nm (OD570).
as §4, §5, §6
Background: Formazan colour is commonly taken as a measure of viable cells.

The test system of the next assay is M059K. As to the kind of experiment: M059K cell growth, cell counting. The following applies: 100, 200 or 400 µM astaxanthin for 24 hours or 48 hours, cell numbers counted, vs DMSO; Figure 6. On the procedure: as §4, §5, §6
In another assay the test system is M059J. The experiment in a line: M059J cell growth, cell counting. The following applies: 100, 200 or 400 µM astaxanthin for 24 hours or 48 hours, cell numbers counted, vs DMSO; Figure 7. The procedure: as §4, §5, §6
Assay [4] has as its system Mouse adrenocortical Y1 cell line. The experiment in a line: MTT assay of Y1 cell viability. The note with it: Y1 cells, 40 µM astaxanthin for 48 hours, compared with DMSO treated group, Fig. 3. The procedure:
as §1, §2, §3, §7

As for `CC1=C(/C=C/C(C)=C/C=C/C(C)=C/C=C/C=C(C)/C=C/C=C(C)/C=C/C2=C(C)C(=O)C(O)CC2(C)C)C(C)(C)CC(O)C1=O` (stereo not shown) [astaxanthin, Astaxanthin], the “number of Y1 cells” value in assay [1] is reported as “reduced”. In addition, the U87MG cell growth entry in the assay on Human U87MG [2] is “inhibited U87MG cell growth in a dose-dependent and time-dependent manner”. Besides, the U2OS cell growth entry in the assay on Human U2OS was “inhibited U2OS cell growth in a dose-dependent manner”. In the assay with Human U87MG [3], the “viability of U87MG cells” value is recorded as “reduced”. Moreover, the M059K cell growth entry in the assay on M059K is “inhibited”. In the assay on M059J, the M059J cell growth result is given as “inhibited”. In assay [4], the OD570 entry is recorded as “reduced”.
